Reference: ChEMBL document CHEMBL1201862, “PubChem BioAssay data set” (2004)
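In this assay, cells in 96-well plates receive the compound at five concentrations for 48 hours. Endpoints are linearly interpolated between the surrounding concentrations. GI50: concentration for 50% inhibition of growth.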 Activity calls are given as the source filed them. Rule as the data show it: active = GI50 up to about 1.1 µM and inactive = higher.

What was measured:
Assay in all cases: inhibition of tumour cell growth, NCI panel, 48 h
A549 = test system: A549
BT-549 = test system: BT-549
COLO 205 = test system: COLO 205
EKVX = test system: EKVX
HL-60 = test system: HL-60
HOP-62 = test system: HOP-62
IGROV-1 = test system: IGROV-1
M14 = test system: M14
MDA-MB-435 = test system: MDA-MB-435
MDA-N = test system: MDA-N
Malme-3M = test system: Malme-3M
OVCAR-3 = test system: OVCAR-3
SK-MEL-5 = test system: SK-MEL-5
SK-OV-3 = test system: SK-OV-3
TK-10 = test system: TK-10
UACC-62 = test system: UACC-62
UO-31 = test system: UO-31
NCI-H226 = test system: NCI-H226
SR = test system: SR
T47D = test system: T47D

Measured: GI50

O=c1cc(-c2ccccc2)oc2ccc(-c3ccc4oc(-c5ccccc5)cc(=O)c4c3)cc12
inactive: A549 16.7 µM | BT-549 > 10 µM | COLO 205 17.1 µM | EKVX 3.75 µM | HL-60 10.1 µM | HOP-62 19.1 µM | IGROV-1 26.9 µM | M14 16.6 µM | MDA-MB-435 17.8 µM | MDA-N 15.4 µM | Malme-3M 20.3 µM | OVCAR-3 > 10 µM | SK-MEL-5 12.9 µM | SK-OV-3 44.8 µM | TK-10 29.4 µM | UACC-62 14.9 µM | UO-31 8.95 µM

COc1ccc(/C(=N/O)c2ccccc2C2=Nc3ccccc3C(NCc3ccccc3)O2)cc1C (configuration not stated)
inactive: A549 49 µM | COLO 205 17.2 µM | EKVX 74.5 µM | HL-60 34.8 µM | HOP-62 31.1 µM | IGROV-1 40.5 µM | M14 39.4 µM | MDA-MB-435 27.2 µM | MDA-N 34.7 µM | Malme-3M 18.6 µM | NCI-H226 37 µM | OVCAR-3 45.7 µM | SK-MEL-5 17.5 µM | SK-OV-3 21.2 µM | SR 32.6 µM | UACC-62 23.9 µM | UO-31 20.6 µM

COc1cc2c(c(OC)c1O)-c1ccc(OC)c(=O)cc1[C@@H](NC(=O)C(F)(F)F)CC2
inactive: BT-549 1.98 µM | EKVX 1.53 µM | T47D > 100 µM | TK-10 > 100 µM | UO-31 6.87 µM
active: A549 0.472 µM | COLO 205 0.0352 µM | HL-60 0.0217 µM | HOP-62 0.192 µM | IGROV-1 0.229 µM | M14 0.0634 µM | MDA-MB-435 0.0206 µM | MDA-N 0.0262 µM | Malme-3M 0.0641 µM | NCI-H226 0.391 µM | OVCAR-3 0.0307 µM | SK-MEL-5 0.0242 µM | SK-OV-3 0.191 µM | UACC-62 0.0387 µM

COc1cc(/C=C/C(=O)OC[C@H](Br)[C@H](OC(C)=O)c2ccc3c(c2)OCO3)cc(OC)c1OC
inactive: A549 92.7 µM | BT-549 > 100 µM | COLO 205 > 100 µM | EKVX > 100 µM | HOP-62 > 100 µM | IGROV-1 > 100 µM | M14 > 100 µM | MDA-MB-435 > 100 µM | Malme-3M > 100 µM | NCI-H226 > 100 µM | OVCAR-3 > 100 µM | SK-MEL-5 > 100 µM | SK-OV-3 > 100 µM | SR 48.8 µM | T47D 52.5 µM | TK-10 > 100 µM | UACC-62 > 100 µM | UO-31 26 µM

COC(=O)C(CCc1ccccc1I)C1=CCC2(CC1)OCCO2 (configuration not stated)
active: HL-60 0.0435 µM
inactive: A549 31 µM | COLO 205 57.9 µM | EKVX 70.8 µM | HOP-62 70.1 µM | IGROV-1 96.2 µM | M14 28.2 µM | MDA-MB-435 27.1 µM | MDA-N 24.2 µM | Malme-3M 33.6 µM | NCI-H226 > 100 µM | OVCAR-3 29.4 µM | SK-MEL-5 15 µM | SK-OV-3 > 100 µM | SR 36.2 µM | T47D 15.8 µM | TK-10 38.3 µM | UACC-62 81.5 µM | UO-31 23.1 µM

CCOC(=O)NC1CN2CCC1CC2 (configuration not stated)
inactive: A549 > 100 µM | COLO 205 > 100 µM | EKVX > 100 µM | HL-60 > 100 µM | HOP-62 > 100 µM | IGROV-1 > 100 µM | M14 > 100 µM | MDA-MB-435 > 100 µM | MDA-N > 100 µM | Malme-3M > 100 µM | NCI-H226 > 100 µM | OVCAR-3 > 100 µM | SK-MEL-5 > 100 µM | SK-OV-3 > 100 µM | SR > 100 µM | T47D > 100 µM | UACC-62 > 100 µM | UO-31 > 100 µM

COc1cc(N(CCC#N)CCC#N)ccc1/C=N\NC(=O)c1ccc(C)cc1
inactive: A549 > 100 µM | BT-549 > 100 µM | COLO 205 > 100 µM | EKVX > 100 µM | HL-60 > 100 µM | HOP-62 > 100 µM | IGROV-1 > 100 µM | M14 > 100 µM | MDA-MB-435 > 100 µM | MDA-N > 100 µM | Malme-3M > 100 µM | NCI-H226 > 100 µM | OVCAR-3 75.2 µM | SK-MEL-5 > 100 µM | SK-OV-3 > 100 µM | T47D > 100 µM | TK-10 > 100 µM | UACC-62 > 100 µM

COCCN(CCNC(=O)c1cccc2c(N)c3cccc(C)c3nc12)CCOC
inactive: BT-549 5.7 µM | EKVX 1.31 µM | M14 1.37 µM | MDA-MB-435 1.83 µM | OVCAR-3 2 µM | SK-OV-3 5.16 µM | T47D 4.65 µM | TK-10 1.49 µM | UACC-62 2.94 µM
active: A549 0.692 µM | COLO 205 0.436 µM | HL-60 0.794 µM | HOP-62 0.948 µM | IGROV-1 0.571 µM | MDA-N 0.875 µM | Malme-3M 0.695 µM | NCI-H226 1.03 µM | SK-MEL-5 0.951 µM

Cc1ccn2c(=O)cc(CN3CCOCC3)nc2c1
inactive: A549 > 100 µM | BT-549 > 100 µM | COLO 205 > 100 µM | EKVX > 100 µM | HL-60 > 100 µM | HOP-62 > 100 µM | IGROV-1 > 100 µM | M14 > 100 µM | MDA-MB-435 > 100 µM | MDA-N > 100 µM | Malme-3M > 100 µM | NCI-H226 > 100 µM | OVCAR-3 > 100 µM | SK-OV-3 > 100 µM | SR > 100 µM | TK-10 > 100 µM | UACC-62 58.1 µM | UO-31 > 100 µM

COc1c(N2CCCCC2)c2c(=O)c3ccccc3oc2c2cc(C)oc12
inactive: A549 18.2 µM | BT-549 21.5 µM | COLO 205 4.09 µM | EKVX 25.9 µM | HL-60 20.9 µM | HOP-62 9.91 µM | M14 14.8 µM | MDA-MB-435 28.6 µM | MDA-N 23.7 µM | Malme-3M 19.3 µM | NCI-H226 13.3 µM | OVCAR-3 18.8 µM | SK-MEL-5 16.5 µM | SK-OV-3 28.1 µM | TK-10 37.6 µM | UACC-62 17.8 µM | UO-31 11.3 µM

[N-]=[N+]=NC(c1cn(C2CC(O)C(CO)O2)c(=O)[nH]c1=O)C(Cl)I (configuration not stated)
inactive: A549 > 100 µM | BT-549 > 100 µM | COLO 205 > 100 µM | EKVX > 100 µM | HOP-62 > 100 µM | IGROV-1 > 100 µM | M14 > 100 µM | MDA-MB-435 > 100 µM | MDA-N > 100 µM | NCI-H226 > 100 µM | OVCAR-3 > 100 µM | SK-MEL-5 > 100 µM | SK-OV-3 > 100 µM | T47D > 100 µM | TK-10 > 100 µM | UACC-62 > 100 µM | UO-31 > 100 µM

CSC(SC)=C(C#N)C(=O)Nc1cccc(Cl)c1
inactive: A549 65.9 µM | BT-549 36.6 µM | COLO 205 > 100 µM | EKVX > 100 µM | HL-60 15.4 µM | HOP-62 67.9 µM | IGROV-1 69.2 µM | M14 47.8 µM | MDA-MB-435 > 100 µM | MDA-N 58.5 µM | Malme-3M 79.4 µM | NCI-H226 > 100 µM | SK-MEL-5 10.3 µM | SK-OV-3 65.8 µM | TK-10 59.3 µM | UACC-62 59.6 µM

N#CC1(Cc2ccccc2Cl)c2ccccc2C=CN1C(=O)c1ccccc1 (configuration not stated)
inactive: A549 90.8 µM | COLO 205 > 100 µM | EKVX > 100 µM | HL-60 29 µM | HOP-62 > 100 µM | IGROV-1 > 100 µM | M14 > 100 µM | Malme-3M 34.1 µM | NCI-H226 > 100 µM | OVCAR-3 > 100 µM | SK-MEL-5 47.4 µM | SK-OV-3 > 100 µM | SR 45.5 µM | TK-10 46.8 µM | UACC-62 > 100 µM | UO-31 51.9 µM

O=C1C(Sc2ccc3ccccc3c2)=C(Sc2ccc3ccccc3c2)C(=O)c2ccccc21
active: HL-60 1.1 µM
inactive: A549 4.72 µM | BT-549 12 µM | COLO 205 3.95 µM | EKVX 10.5 µM | HOP-62 13.1 µM | M14 11.5 µM | MDA-MB-435 17.7 µM | NCI-H226 13.9 µM | SK-MEL-5 2.81 µM | SK-OV-3 22.7 µM | T47D 1.76 µM | UACC-62 3.24 µM | UO-31 3.95 µM

CC(=O)OCCOCn1c2c(c(=S)[nH]c1=O)CCC2
inactive: A549 > 100 µM | BT-549 > 100 µM | COLO 205 > 100 µM | EKVX > 100 µM | HL-60 > 100 µM | HOP-62 > 100 µM | IGROV-1 > 100 µM | M14 > 100 µM | MDA-MB-435 > 100 µM | MDA-N > 100 µM | Malme-3M > 100 µM | NCI-H226 > 100 µM | OVCAR-3 > 100 µM | SK-MEL-5 > 100 µM | SR > 100 µM | TK-10 > 100 µM | UO-31 > 100 µM

COC(=O)CCC1(C)C2CCC1(C)/C(=N/O)C2 (configuration not stated)
inactive: A549 > 100 µM | BT-549 > 100 µM | COLO 205 > 100 µM | EKVX > 100 µM | HOP-62 > 100 µM | IGROV-1 > 100 µM | M14 > 100 µM | MDA-MB-435 > 100 µM | MDA-N > 100 µM | Malme-3M > 100 µM | NCI-H226 > 100 µM | OVCAR-3 > 100 µM | SK-MEL-5 > 100 µM | SK-OV-3 > 100 µM | T47D > 100 µM | TK-10 > 100 µM | UACC-62 > 100 µM | UO-31 > 100 µM
